Patent US20220251071A1, “METHOD TO MAKE SMALL-MOLECULE MURINE DOUBLE MINUTE 2 PROTEIN (MDM2)-DEGRADING COMPOUNDS, COMPOUNDS FORMED THEREBY, AND PHARMACEUTICAL COMPOSITIONS CONTAINING THEM” (Wisconsin Alumni Research Foundation, priority 2019, published 2022)

Legend:
RS4;11 cells [1] = assay: MTT cell viability (anti-proliferation) assay; assay type: cell-based, human; details: for IC50: Homo sapiens, RS4-11, MTT assay, 48 h incubation, read-out: IC50, inhibition of growth/proliferation of RS4;11 cells; for anti-proliferation effect, rank in screen / anti-proliferation potency relative to parent MDM2 inhibitor: RS4;11 cells; for anti-proliferation effect, rank in screen: compounds tested at 100 nM; for anti-proliferation potency relative to parent MDM2 inhibitor: 20 vs 1, 32 vs (4S, 5R)-1
Description: The “MTT assay” is a colorimetric assay for assessing cellular metabolic activity. NAD(P)H-dependent cellular oxidoreductase enzymes reflect the number of viable cells present. These enzymes are capable of reducing the tetrazolium dye 3-(4,5-dimethylthiazol-2-yl)-2,5-diphenyltetrazolium bromide (“MTT”) to its insoluble formazan, which has a purple color and whose concentration is then measured spectrophotometrically. The MTT assay is conventional and well known. See, for example, Stockert et al. (2018) “Tetrazolium salts and formazan products in Cell Biology: Viability assessment, fluorescence imaging, and labeling perspectives,” Acta Histochemica 120: 159-167. As used herein, “MTT assay” refers broadly to the MTT assay itself and to the well-known variations of it that use structurally related tetrazolium salts (e.g., XTT, MTS, etc.).
(§1) The human acute leukemia RS4;11 cell line was purchased from American Type Culture Collection (ATCC Accession No. CRL-1873), and cultured in RPMI-1640 media (Corning Incorporated (USA), One Riverfront Plaza, Corning, N.Y. 14831) supplemented with 10% fetal bovine serum (FBS), 1% sodium pyruvate, 1% penicillin/streptomycin, and 10 mM HEPES at 37° C. under a humidified 5% CO2 atmosphere. The experiments were performed by using cells with 8-20 passages after purchasing.
Cells were seeded in a 96-well cell culture plate at a density of 2×10^4 cells with 90 μL cell culture media overnight. The cells were then treated with the indicated dose of compounds, respectively, and incubated at 37° C. under a humidified 5% CO2 atmosphere for 48 h. After the incubation, the cells were treated with 10 μL of MTT solution (5 mg/mL) and incubated with another 4 h, followed by the addition of 100 μL of solubilizing solution. The plate was placed on the shaker for overnight at room temperature until the formazan were entirely dissolved. The plate was scanned at 570 nm and 690 nm. The absorbance was normalized to the DMSO-treated cells, and the IC50 was calculated by non-linear regression analysis using GraphPad Prism 6 software.

MDM2 = biological target: T1, MDM2 (Homo sapiens, UniProt Q00987); assay: Western blot of MDM2 degradation and downstream proteins; assay type: cell-based; details: for MDM2 degradation at 100 nM, 20 compared with 32: identical conditions; for MDM2 degradation (Western blot): RS4;11 leukemia cells, data not shown
T1 construct: endogenous in cells; host or cells: RS4;11 (ATCC CRL-1873)
T1 sequence (Q00987 whole entry): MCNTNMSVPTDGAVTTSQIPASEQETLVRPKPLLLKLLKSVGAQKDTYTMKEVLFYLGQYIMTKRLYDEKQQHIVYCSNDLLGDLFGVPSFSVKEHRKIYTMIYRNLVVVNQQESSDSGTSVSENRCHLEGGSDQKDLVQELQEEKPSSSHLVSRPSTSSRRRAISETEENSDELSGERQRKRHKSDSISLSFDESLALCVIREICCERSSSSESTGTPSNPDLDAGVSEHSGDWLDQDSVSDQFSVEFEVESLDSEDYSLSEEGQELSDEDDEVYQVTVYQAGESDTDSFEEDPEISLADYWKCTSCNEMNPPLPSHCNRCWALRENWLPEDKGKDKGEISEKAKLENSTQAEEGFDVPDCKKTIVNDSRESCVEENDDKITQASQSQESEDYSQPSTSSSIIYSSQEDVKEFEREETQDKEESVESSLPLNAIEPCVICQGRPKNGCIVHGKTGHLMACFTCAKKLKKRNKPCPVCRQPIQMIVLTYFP
Description: as §1
Cells were treated with the indicated concentrations of compounds under the indicated time. Cells were collected and lysed with RIPA buffer (Corning) after being washed with cold PBS twice. The supernatant was collected after centrifugation at 16,000×g at 4° C. for 15 min. The protein concentration was measured with BCA (bicinchoninic acid) method. (Smith, P. K., et al. (1985) “Measurement of protein using bicinchoninic acid,” Anal. Biochem. 150(1):76-85.) The protein expressed in the whole cell lysates was identified by Western Blot. A quantity of 40 μg protein per sample was loaded and then separated by SDS-PAGE. Proteins in the gel was transferred to polyvinylidene fluoride (PVDF) membranes, then blocked with 5% non-fat milk, and probed with the primary antibodies at 4° C. overnight. The primary antibodies are as following: MDM2 (D1V2Z) (1:1000), p53 (DO-7) (1:1000), PARP (46D11) (1:1000), Caspase-3 (1:1000), and p21 Waf1/Cip 1(12D1) (1:1000), all of which were purchased from Cell Signaling Technology, Inc., 3 Trask Lane, Danvers, Mass. 01923, along with a-Tubulin (1:1000) and β-Actin (1:1000), which were purchased from R&D Systems, Inc., 614 McKinley Place NE, Minneapolis, Minn. 55413. The membrane was washed with TBS-T 3 times, and incubated with HRP-linked secondary antibodies for 1 h at room temperature, followed by washing with TBS-T. The membrane was incubated with ECL (Bio-rad) for 5 min. The protein band was visualized by using a Bio-Rad Chemi-Doc MP imaging system. The intensity of the band was measured by Image J software.

p53 = details: xenograft tumor tissues; cited from earlier work
[2] = system: p53 transcriptional activity (MDM2, TP53, CDKN1A mRNA); assay: qRT-PCR of mRNA levels of p53 target genes; assay type: cell-based, human; details: RS4;11 cells, 6 h; for transcription of p53 targeted genes MDM2 and CDKN1A (p21): (4S,5R)-1 at 1 PM as printed, 32 at 100 nM
Description: Total RNA was extracted using GeneJET RNA Purification Kit (Thermo Scientific) and titrated by SYNERGY H1 Hybrid Multi-Mode Reader (BioTek) at 260 nm. 1 μg of total RNA was subjected to reverse transcription using High-Capacity cDNA Reverse Transcription Kit (appliedbiosystems). Quantitative RT-PCR was performed using PowerUp™ SYBR™ Green Master Mix (appliedbiosystems) and the amplification detected in a QuantStudio 7 Flex Real-Time PCR System (ThermoFisher Applied Biosystems).

RS4;11 cells [3] = assay: Flow cytometry apoptosis, Annexin V / PI staining; assay type: cell-based, human; details: 24 h, 100 nM or 1 μM
Description: Cells were seeded in a 6 cm circular cell culture dish at a density of 5×10^6 cells. After being settled overnight, the cells were treated with the indicated concentrations of compounds for 24 h. The collected cells were double stained with FITC Annexin V and PI according to the manufacturer's protocols. The apoptosis was analyzed using a FITC Annexin V apoptosis detection kit (556547, BD Biosciences, 2350 Qume Drive, San Jose, Calif. 95131).

Row | IC50 (RS4;11 cells [1]) [nM] | MDM2 degradation (Western blot) (MDM2) | Structure (SMILES) | anti-proliferation effect, rank in screen (RS4;11 cells [1]) | anti-proliferation potency relative to parent MDM2 inhibitor (RS4;11 cells [1]) | MDM2 degradation at 100 nM, 20 compared with 32 (MDM2; RS4;11 cells) | effect on TP53 mRNA [2] | transcription of p53 targeted genes MDM2 and CDKN1A (p21) [2] | also measured
1 | 7.2 | degrade significant amounts of MDM2 | CCOc1cc(C(C)(C)C)ccc1C1=NC(c2ccc(Cl)cc2)C(c2ccc(Cl)cc2)N1C(=O)N1CCN(CC#Cc2cccc3c2CN(C2CCC(=O)NC2=O)C3=O)CC1 (racemic) [Compound 20, 3-(4-(3-(4-(2-(4-(tert-butyl)-2-ethoxyphenyl)-4,5-bis(4-chlorophenyl)-4,5-dihydro-1H-imidazole-1-carbonyl)piperazin-1-yl)prop-1-yn-1-yl)-1-oxoisoindolin-2-yl)piperidine-2,6-dione] | most potent inhibitor of RS4;11 | ~1,000 fold | significant degradation of MDM2 was observed | – | – | –
2 | – | – | CC(C)(C)C[C@@H]1N[C@@H](C(=O)N[C@H]2CC[C@H](O)CC2)[C@H](c2cccc(Cl)c2F)[C@]12C(=O)Nc1cc(Cl)ccc12 [SAR405838] | – | – | – | – | – | duration of p53 accumulation after a single dose (p53): only induced a few hours of p53 accumulation
3 | 3.2 | degrade significant amounts of MDM2 | CCOc1cc(C(C)(C)C)ccc1C1=N[C@@H](c2ccc(Cl)cc2)[C@@H](c2ccc(Cl)cc2)N1C(=O)N1CCN(CC#Cc2cccc3c2CN(C2CCC(=O)NC2=O)C3=O)CC1 (stereo partly drawn) [Compound 32, 3-(4-(3-(4-((4S,5R)-2-(4-(tert-butyl)-2-ethoxyphenyl)-4,5-bis(4-chlorophenyl)-4,5-dihydro-1H-imidazole-1-carbonyl)piperazin-1-yl)prop-1-yn-1-yl)-1-oxoisoindolin-2-yl)piperidine-2,6-dione] | most potent compound as compared to 33 and 34 | ~1,000 fold | superior | Neither MDM2 ligand (4S, 5R)-1 nor degrader 32 has any effect on TP53 | more significant transcriptional upregulation | MDM2 degradation on co-treatment with MDM2 ligand (4S, 5R)-1 or CRBN ligand lenalidomide (MDM2; 32 at 100 nM, competitor 5 μM): significantly reduced; reversibility of MDM2 downregulation after washout (MDM2; 12 h treatment, then fresh medium): reversible; MDM2 degradation on co-incubation with proteasome inhibitor MG132 (MDM2; MG132 5 PM as printed): the degradation of MDM2 ceased; MDM2 and p53 protein levels (MDM2; RS4;11 cells, 100 nM or 1 μM): MDM2 depleted and p53 was stabilized and upregulated; cleavage of PARP and Caspase-3 (MDM2; RS4;11 cells, 100 nM or 1 μM): cleaved PARP and Caspase-3 were observed; p21 protein level (MDM2; RS4;11 cells, 100 nM or 1 μM): increased level of p21; Dmax at 0.1 µM (MDM2; RS4;11 cells, 24 h, observed at 100 nM, read-out: maximal level of MDM2 degradation (Dmax)): 90%; DC50 (MDM2; RS4;11 cells, 24 h incubation, read-out: concentration at which 50% MDM2 degradation was detected (DC50)): 23 nM; time after washout without return of MDM2 to pre-treatment levels (MDM2; RS4;11 cells, after removal of degrader): > 48 h; time at which MDM2 degradation was first observed (MDM2; RS4;11 cells, time course): 1 h; time at which cleaved PARP was observed (MDM2; RS4;11 cells, time course): 6 h; apoptosis induction, Annexin V-positive cells (RS4;11 cells [3]): A large number of cells were identified in Annexin V-positive quadrants
4 | – | – | CCOc1cc(C(C)(C)C)ccc1C1=N[C@@H](c2ccc(Cl)cc2)[C@@H](c2ccc(Cl)cc2)N1C(=O)N1CCNCC1 [(4S, 5R)-1, ((4S,5R)-2-(4-(tert-butyl)-2-ethoxyphenyl)-4,5-bis(4-chlorophenyl)-4,5-dihydro-1H-imidazol-1-yl)(piperazin-1-yl)methanone] | – | – | – | Neither MDM2 ligand (4S, 5R)-1 nor degrader 32 has any effect on TP53 | upregulated | –
5 | – | degrade significant amounts of MDM2 | CCOc1cc(C(C)(C)C)ccc1C1=NC(c2ccc(Cl)cc2)C(c2ccc(Cl)cc2)N1C(=O)N1CCN(C(=O)CCC#Cc2cccc3c2CN(C2CCC(=O)NC2=O)C3=O)CC1 (centres unmarked) [Compound 7, 3-(4-(5-(4-(2-(4-(tert-butyl)-2-ethoxyphenyl)-4,5-bis(4-chlorophenyl)-4,5-dihydro-1H-imidazole-1-carbonyl)piperazin-1-yl)-5-oxopent-1-yn-1-yl)-1-oxoisoindolin-2-yl)piperidine-2,6-dione] | – | – | – | – | – | –
6 | – | degrade significant amounts of MDM2 | C=C1NC(=O)CCC1N1Cc2c(C#CCCCC(=O)NCC(=O)N3CCN(C(=O)N4C(c5ccc(C(C)(C)C)cc5OCC)=NC(c5ccc(Cl)cc5)C4c4ccc(Cl)cc4)CC3)cccc2C1=O (centres unmarked) [Compound 15, N-(2-(4-(2-(4-(tert-butyl)-2-ethoxyphenyl)-4,5-bis(4-chlorophenyl)-4,5-dihydro-1H-imidazole-1-carbonyl)piperazin-1-yl)-2-oxoethyl)-6-(2-(2-methylene-6-oxopiperidin-3-yl)-1-oxoisoindolin-4-yl)hex-5-ynamide] | – | – | – | – | – | –
